As usually defined, the IC50 is the concentration needed to halve the response being measured. A higher IC50 goes with a need for much substance.

A value given as a limit tells only on which side of the number the result lay.

The test has as its target Epidermal growth factor receptor (Homo sapiens, UniProt P00533). As to the kind of experiment: Inhibition Assay.

Sequence of Epidermal growth factor receptor (P00533 whole entry): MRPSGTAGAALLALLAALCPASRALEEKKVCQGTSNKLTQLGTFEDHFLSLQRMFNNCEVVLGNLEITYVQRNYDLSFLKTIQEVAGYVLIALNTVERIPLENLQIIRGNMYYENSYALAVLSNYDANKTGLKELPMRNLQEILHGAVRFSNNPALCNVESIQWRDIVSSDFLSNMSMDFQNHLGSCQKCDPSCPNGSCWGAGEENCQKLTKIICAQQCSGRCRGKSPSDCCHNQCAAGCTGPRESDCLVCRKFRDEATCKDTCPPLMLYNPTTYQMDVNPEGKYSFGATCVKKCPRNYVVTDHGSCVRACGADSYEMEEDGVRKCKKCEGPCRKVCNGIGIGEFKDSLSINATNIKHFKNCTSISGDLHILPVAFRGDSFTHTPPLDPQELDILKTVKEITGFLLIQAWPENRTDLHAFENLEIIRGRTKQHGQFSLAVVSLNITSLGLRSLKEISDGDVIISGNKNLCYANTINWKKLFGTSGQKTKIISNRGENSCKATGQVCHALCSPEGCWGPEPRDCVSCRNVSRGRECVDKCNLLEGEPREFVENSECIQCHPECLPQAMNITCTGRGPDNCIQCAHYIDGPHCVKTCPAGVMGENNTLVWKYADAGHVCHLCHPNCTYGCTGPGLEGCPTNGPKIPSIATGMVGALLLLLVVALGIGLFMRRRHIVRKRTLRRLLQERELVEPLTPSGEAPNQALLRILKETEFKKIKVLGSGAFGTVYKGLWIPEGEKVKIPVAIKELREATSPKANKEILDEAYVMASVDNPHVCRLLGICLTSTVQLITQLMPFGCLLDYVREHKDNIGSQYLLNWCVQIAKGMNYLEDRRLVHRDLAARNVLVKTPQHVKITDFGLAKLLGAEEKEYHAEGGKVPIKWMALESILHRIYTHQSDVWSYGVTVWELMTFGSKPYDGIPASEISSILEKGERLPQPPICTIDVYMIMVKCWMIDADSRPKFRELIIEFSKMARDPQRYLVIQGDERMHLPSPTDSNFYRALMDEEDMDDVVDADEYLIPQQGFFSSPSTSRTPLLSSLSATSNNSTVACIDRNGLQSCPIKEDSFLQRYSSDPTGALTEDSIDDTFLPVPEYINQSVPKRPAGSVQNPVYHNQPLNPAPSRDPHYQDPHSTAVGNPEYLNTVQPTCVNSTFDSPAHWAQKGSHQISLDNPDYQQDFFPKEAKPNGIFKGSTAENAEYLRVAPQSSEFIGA
Protocol: The concentration of DMSO after addition of the compound prepared in the above examples of the present invention (i.e., the compound to be tested) was 2 vol %.The working concentrations of each component in 10 μL wild-type EGER kinase reaction system were: 10 μM ATP, 0.8 ng/μL wild-type EGFR kinase, 2 μM Tyr04 substrate (Invitrogen, PV3193). The concentration of DMSO after addition of the compound to be tested was 2 vol %.10 mM drug stock solution was dissolved at room temperature and diluted to a final concentration of 4-0.002 μM with 8 vol % DMSO solution. […] Then 2.5 μl of ATP was added to initiate the reaction. Wherein, ATP was replaced by the reaction buffer in C1 well, no drug was added to C2 well, and the phosphorylated substrate was added to C3 well according to the instructions. The mixture was allowed to react at 25° C. in a shaker in dark for 60 min, 5 μL of Development Reagent B (invitrogen, diluted with TR-FRET dilution buffer) was added and allowed to react at room temperature in the shaker for 60 minutes.

`C=CC(=O)Nc1cc(Nc2nc(-c3cnn(C)c3)c3cc[nH]c3n2)c(OC)cc1OCCN(C)C` [US9890168, Compound 10] showed an IC50 of 578 nM.
In turn, `C=CC(=O)Nc1cc(Nc2nc(-c3cnn(C)c3)c3c(C)c[nH]c3n2)c(OC)cc1N1CCC(N(C)C)CC1` [US9890168, Compound 14] showed an IC50 above 1000 nM.

Source of the values: BindingDB's records for patent US9890168 (Shanghai Haiyan Pharmaceutical Technology, 2018).
